Results published in PMC11719499 (International Journal of Molecular Sciences, 2024).
“Also recorded” adds a separate entry of the source.

Experiments:
[1] = for Prediction of penetration to the CNS: class from logPe in PAMPA-BBB; for BBB permeability (in words): PAMPA-BBB
Method: We used the parallel artificial membrane permeability assay for BBB (PAMPA-BBB) to determine the brain permeability of compounds 1 and 12 [22]. The compounds 1 and 12 were prepared with methyl alcohol at the concentration of 4 mg/mL. These were diluted with PBS (Phosphate Buffer Saline; pH = 7.4) to obtain the donor solutions 100 μg/mL PAMPA “sandwich”, consisting of a donor 96-well microliter plate and matching filter plate coated with 5 μL of 2% lecithin/dodecane. Compounds 1 and 12 were added to the wells (150 μL/well) of the pre-coated filter, and PBS was added to the wells (300 μL/well) of the receiver plate. The filter plate was coupled with the receiver plate, and the plate couple was incubated in the thermostat at 37 °C for 16 h. After incubation, the plates were separated, and the samples from each well of both the filter plate and the receiver plate were sucked out and analyzed by HPLC.

[2] = tested on: HM mCherry-GFP-LC3 cells; assay: Autophagic flux assay by flow cytometry in HM mCherry-GFP-LC3 cells; assay type: cell-based, human; conditions: compounds at 10 µM and 40 µM, 24 h, compared to control
Method: Consequently, the autolysosomes manifest red fluorescence. Consequently, the red fluorescence observed in the cells can be used as a marker for the formation of autolysosomes. The extent of red fluorescence can be used as an indicator of the efficiency of the flux from the autophagosome to the autolysosome. The bioactivity of all compounds on autophagic flux was evaluated using HM mCherry-GFP-LC3 cells by flow cytometry. In summary, the HM mCherryGFP-LC3 cells were cultured in 12-well plates for 24 h in DMEM (Dulbecco’s modified Eagle medium) supplemented with 10% fetal bovine serum (Gibco-BRL, 10099–141, Gaithersburg, MD, USA) in a 37 ◦C incubator with 5% CO2 at 95% humidity. Subsequently, the compounds were introduced directly to the culture medium, resulting in final concentrations of 10 µM and 40 µM. Rapamycin was used as a positive control. Twenty-four hours following the administration of the treatment, the cells were harvested and fixed using 4% paraformaldehyde (PFA). […] The data were analyzed using the FlowJo software v10 (BD Biosciences, Franklin Lakes, NJ, USA).
Data analyses were carried out by using GraphPad Prism 8 (GraphPad Software, Inc., La Jolla, CA, USA). The one-way ANOVA (analysis of variance) was performed using Dunnett’s post hoc test for comparison between the treated group and control group, and the values were expressed as mean ± standard deviation (SD). […]

SMILES | Prediction of penetration to the CNS [1] | bioactivity towards autophagic flux [2] | BBB permeability (in words) [1]
NC(=O)N1c2ccccc2C=Cc2ccccc21 [Carbamazepine, carbamazepine, reference compound] | CNS ++ (++ is logPe > −5.0) |  | 
C=C1C(OC(=O)C(C)C)C(O)C(OC(=O)c2ccccc2)C(C)(C)C=CC(C)C(OC(C)=O)C2(O)CC(C)(OC(C)=O)C(OC(=O)c3ccccc3)C2C1OC(C)=O (centres unmarked) [Compound 1, Euphjatrophane H] | CNS ++ (++ is logPe > −5.0) | most promising activity; also recorded: significant activity on autophagic flux | relatively high BBB permeability; also recorded: ability to penetrate the blood–brain barrier (BBB)
C=C1[C@H](OC(=O)/C(C)=C/C)[C@@H](OC(C)=O)[C@@H](OC(C)=O)C(C)(C)/C=C/[C@H](C)[C@@H](OC(C)=O)[C@@]2(O)C[C@@](C)(OC(C)=O)[C@H](OC(=O)c3ccccc3)[C@@H]2[C@H]1OC(C)=O [Compound 12, euphpepluone F] | CNS + (+ is logPe > −6.0) | most promising activity; also recorded: significant activity on autophagic flux | relatively high BBB permeability; also recorded: ability to penetrate the blood–brain barrier (BBB)
CC(C)NCC(O)COc1cccc2ccccc12 (centres unmarked) [Propranolol, propranolol, reference compound] | CNS ++ (++ is logPe > −5.0) |  | 
